# Reference: patent publication US8785488B2 (Exelixis Patent Company LLC, priority 2009, dated 2014)
# Target: T1, human TGR5 (h-TGR5) (Homo sapiens, UniProt Q8TDU6)
# T1 construct: expressed in transfected cells
# T1 sequence (Q8TDU6 1-330): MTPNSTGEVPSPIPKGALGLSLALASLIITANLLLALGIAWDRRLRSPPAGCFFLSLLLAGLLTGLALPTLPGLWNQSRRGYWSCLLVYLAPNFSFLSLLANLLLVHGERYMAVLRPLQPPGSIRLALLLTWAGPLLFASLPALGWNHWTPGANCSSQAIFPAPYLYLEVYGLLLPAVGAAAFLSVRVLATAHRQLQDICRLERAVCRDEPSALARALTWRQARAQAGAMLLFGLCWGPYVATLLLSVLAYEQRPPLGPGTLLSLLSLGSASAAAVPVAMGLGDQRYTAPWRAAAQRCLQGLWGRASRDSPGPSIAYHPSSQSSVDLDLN
# Assay: TGR5/CRE-Luciferiase Assay (HEK 293 hTGR5/CRE-Luc cells)
# Type: cell-based
# Conditions: h-TGR5 CRE-Luc EC50, Table 1; read-out: CRE-Luc (EC50)
# Procedure: Compounds were serially diluted in DMEM containing 5% DMSO and 5 μL of compound or media alone was transferred to each well and plates were incubated for 6 hours. Following incubation, 30 μL of lysis/luciferase buffer was added to each well. The luciferase activity was then measured on the EnVision™ plate reader and the dose response data was analyzed using ActivityBase.
# In the following tables, EC50 values determined according to the TGR5 cAMP Assay described herein (cAMP); EC50 values determined according to the TGR5/CRE-Luciferiase Assay described herein (CRE-Luc). […] The following compounds in Tables 1 and 2 were made by using procedures described in the above Schemes and Examples, and, where applicable, by making any necessary substitutions of known materials that one skilled in the art would ordinarily understand how to do.
row,SMILES,EC50
1,"CC(C)(Oc1cc(CSc2ncc(C(C)(C)c3ccc(Cl)c(Cl)c3)n2-c2ccc(F)cc2)ccc1F)C(=O)O [2-({5-[({5-[1-(3,4-dichlorophenyl)-1-methylethyl]-1-(4-fluorophenyl)-1H-imidazol-2-yl}thio)methyl]-2-fluorophenyl}oxy)-2-methylpropanoic acid]",100 to 1000 nM
2,"CC(C)(c1ccc(O)c(O)c1)c1cnc(SCc2ccc(F)cc2Cl)n1-c1ccc(F)cc1 [4-{1-[2-{[(2-chloro-4-fluorophenyl)methyl]thio}-1-(4-fluorophenyl)-1H-imidazol-5-yl]-1-methylethyl}benzene-1,2-diol]",< 100 nM
3,"CC(C)(c1ccc(Cl)c(Cl)c1)c1cnc(SCc2cc(C(N)=O)ccc2Cl)n1-c1ccc(F)cc1 [4-chloro-3-[({5-[1-(3,4-dichlorophenyl)-1-methylethyl]-1-(4-fluorophenyl)-1H-imidazol-2-yl}thio)methyl]benzamide]",100 to 1000 nM
4,"CC(C)(c1ccc(Cl)c(Cl)c1)c1cnc(SCc2ccc(F)cc2OCC(=O)O)n1-c1ccc(F)cc1 [({2-[({5-[1-(3,4-dichlorophenyl)-1-methylethyl]-1-(4-fluorophenyl)-1H-imidazol-2-yl}thio)methyl]-5-fluorophenyl}oxy)acetic acid]",100 to 1000 nM
5,"CC(C)(c1ccc(Cl)c(Cl)c1)c1nc(CSc2ccc(F)cc2Cl)cn1-c1ccc(F)cc1 [4-{[(2-chloro-4-fluorophenyl)thio]methyl}-2-[1-(3,4-dichlorophenyl)-1-methylethyl]-1-(4-fluorophenyl)-1H-imidazole]",1000 to 10000 nM
6,"CC(C)(c1ccc(Cl)c(Cl)c1)c1cnc(-c2ccc(F)cc2)n1-c1ccc(F)cc1 [5-[1-(3,4-dichlorophenyl)-1-methylethyl]-1,2-bis(4-fluorophenyl)-1H-imidazole]",100 to 1000 nM
7,"CC(C)(c1ccc(Cl)c(Cl)c1)c1cnc(COc2ccc(C#N)cn2)n1-c1ccc(F)cc1 [6-[({5-[1-(3,4-dichlorophenyl)-1-methylethyl]-1-(4-fluorophenyl)-1H-imidazol-2-yl}methyl)oxy]pyridine-3-carbonitrile]",100 to 1000 nM
8,"CC(C)(C(=O)O)c1ccc(CSc2ncc(C(C)(C)c3ccc(Cl)c(Cl)c3)n2-c2ccc(F)cc2)c(F)c1 [2-{4-[({5-[1-(3,4-dichlorophenyl)-1-methylethyl]-1-(4-fluorophenyl)-1H-imidazol-2-yl}thio)methyl]-3-fluorophenyl}-2-methylpropanoic acid]",100 to 1000 nM
9,"CC(C)(c1ccc(Cl)c(Cl)c1)c1cnc(/C=C/c2c(F)cccc2Cl)n1-c1ccc(F)cc1 [2-[(E)-2-(2-chloro-6-fluorophenyl)ethenyl]-5-[1-(3,4-dichlorophenyl)-1-methylethyl]-1-(4-fluorophenyl)-1H-imidazole]",1000 to 10000 nM
10,"CC(C)(c1ccc(Cl)c(Cl)c1)c1cnc(SCc2ccc(Cl)c(-c3nnn[nH]3)c2)n1-c1cccc(F)c1 [5-{2-chloro-5-[({5-[1-(3,4-dichlorophenyl)-1-methylethyl]-1-(3-fluorophenyl)-1H-imidazol-2-yl}thio)methyl]phenyl}-1H-tetrazole]",100 to 1000 nM
11,"CC(C)(c1ccc(Cl)c(Cl)c1)c1cnc(COc2ccc(C(=O)O)cn2)n1-c1ccc(F)cc1 [6-[({5-[1-(3,4-dichlorophenyl)-1-methylethyl]-1-(4-fluorophenyl)-1H-imidazol-2-yl}methyl)oxy]pyridine-3-carboxylic acid]",100 to 1000 nM
12,"COc1ccc(C(C)(C)c2cnc(SCc3c(F)cc(-c4nnn[nH]4)cc3F)n2-c2ccc(F)cc2)cc1Cl [5-[4-({[5-{1-[3-chloro-4-(methyloxy)phenyl]-1-methylethyl}-1-(4-fluorophenyl)-1H-imidazol-2-yl]thio}methyl)-3,5-difluorophenyl]-1H-tetrazole]",< 100 nM

# Results, then the compound that gave them:
row,EC50,SMILES
1,100 to 1000 nM,"CC(C)(c1ccc(Cl)c(Cl)c1)c1cnc(COc2ccc(Cl)c(S(N)(=O)=O)c2)n1-c1ccc(F)cc1 [2-chloro-5-[({5-[1-(3,4-dichlorophenyl)-1-methylethyl]-1-(4-fluorophenyl)-1H-imidazol-2-yl}methyl)oxy]benzenesulfonamide]"
2,1000 to 10000 nM,"CC(C)(C(=O)O)c1cc(CSc2ncc(C(C)(C)c3ccc(Cl)c(Cl)c3)n2-c2ccc(F)cc2)ccc1F [2-{5-[({5-[1-(3,4-dichlorophenyl)-1-methylethyl]-1-(4-fluorophenyl)-1H-imidazol-2-yl}thio)methyl]-2-fluorophenyl}-2-methylpropanoic acid]"
3,100 to 1000 nM,"CC(C)(c1ccc(Cl)c(Cl)c1)c1cnc(S(=O)(=O)C(C)(C)c2c(F)cccc2Cl)n1-c1ccc(F)cc1 [2-{[1-(2-chloro-6-fluorophenyl)-1-methylethyl]sulfonyl}-5-[1-(3,4-dichlorophenyl)-1-methylethyl]-1-(4-fluorophenyl)-1H-imidazole]"
4,100 to 1000 nM,"CC(C)(c1ccc(Cl)c(Cl)c1)c1cnc(SCc2ccc(C(N)=O)cc2Cl)n1-c1ccc(F)cc1 [3-chloro-4-[({5-[1-(3,4-dichlorophenyl)-1-methylethyl]-1-(4-fluorophenyl)-1H-imidazol-2-yl}thio)methyl]benzamide]"
5,1000 to 10000 nM,"CC(C)(c1ccc(Cl)c(Cl)c1)c1cnc(SCc2ccc(C(=N)N)c(Cl)c2)n1-c1ccc(F)cc1 [2-chloro-4-[({5-[1-(3,4-dichlorophenyl)-1-methylethyl]-1-(4-fluorophenyl)-1H-imidazol-2-yl}thio)methyl]benzenecarboximidamide]"
6,100 to 1000 nM,"CC(C)NC(=O)N1CCC(CSc2ncc(C(C)(C)c3ccc(F)c(F)c3)n2-c2ccc(F)cc2)CC1 [4-[({5-[1-(3,4-difluorophenyl)-1-methylethyl]-1-(4-fIuorophenyl)-1H-imidazol-2-yl}thio)methyl]-N-(1-methylethyl)piperidine-1-carboxamide]"
7,100 to 1000 nM,"CC(C)(c1ccc(Cl)c(Cl)c1)c1c(Cl)nc(SCc2c(F)cccc2Cl)n1-c1ccc(F)cc1 [4-chloro-2-{[(2-chloro-6-fluorophenyl)methyl]thio}-5-[1-(3,4-dichlorophenyl)-1-methylethyl]-1-(4-fluorophenyl)-1H-imidazole]"
8,100 to 1000 nM,"CC(C)(c1ccc(Cl)c(Cl)c1)c1cnc(S(=O)(=O)Cc2ccc(F)c(C(F)(F)F)c2)n1-c1ccc(F)cc1 [5-[1-(3,4-dichlorophenyl)-1-methylethyl]-1-(4-fluorophenyl)-2-({[4-fluoro-3-(trifluoromethyl)phenyl]methyl}sulfonyl)-1H-imidazole]"
9,100 to 1000 nM,"CC(C)(c1ccc(Cl)c(Cl)c1)c1cnc(SCc2ccc(F)cc2S(C)(=O)=O)n1-c1ccc(F)cc1 [5-[1-(3,4-dichlorophenyl)-1-methylethyl]-2-({[4-fluoro-2-(methylsulfonyl)phenyl]methyl}thio)-1-(4-fluorophenyl)-1H-imidazole]"
10,1000 to 10000 nM,"COc1ccc(C(C)(C)c2cnc(C(=O)Nc3ccc(Cl)c(Cl)c3)n2-c2ccc(F)cc2)cc1OC [5-{1-[3,4-bis(methyloxy)phenyl]-1-methylethyl}-N-(3,4-dichlorophenyl)-1-(4-fluorophenyl)-1H-imidazole-2-carboxamide]"
11,< 100 nM,"COc1ccc(C(C)(C)c2cnc(S(=O)(=O)CCc3ccc(F)c(Cl)c3)n2-c2ccc(F)cc2)cc1OC [5-{1-[3,4-bis(methyloxy)phenyl]-1-methylethyl}-2-{[2-(3-chloro-4-fluorophenyl)ethyl]sulfonyl}-1-(4-fluorophenyl)-1H-imidazole]"
